{
  "source": "patent US20240108632A1",
  "about": "“PHARMACEUTICAL COMPOSITION FOR ADMINISTRATION AS OPHTHALMIC DROP TO PATIENT REQUIRING OPTIC NERVE PROTECTION” (PINOTBIO, INC., priority 2020, published 2024)",
  "key": {"[1]": {"assay": "Solubility as a function of HP-β-CD concentration, without pH adjustment (purified water)", "format": "physicochemical", "settings": "no pH adjustment", "experimental": "Various concentrations of HP-β-CD aqueous solutions were prepared by adding appropriate amounts of HP-β-CD at 0.5%, 1%, 2%, 3%, 4%, and 5% (w/v) in tertiary purified water. An excess of KR-67607 was added to the above HP-β-CD solution and stirred for 24 hours, then the supernatant was collected, filtered through a 0.2 μm PVDF filter, and 1 mL was added to a 10 mL volumetric flask and labeled with methanol.\nThe standard was 50 mg of KR-67607 accurately weighed and placed in a 50 mL volumetric flask and completely dissolved/stained with methanol. 1, 2, 4, 6, 8, 10 mL of the standard was accurately taken and placed in a 20 mL volumetric flask, and the one labeled with methanol was used as the standard.\nThe UV analysis conditions are as follows • Wavelength: 255 nm • Cell: 10 mm Quartz cell\nKR-67607 concentration (μg/mL)=(UV absorbance of the sample−y-intercept of the standard curve)/(slope of the standard curve)×dilution factor of the sample. [Formula]"}, "DBA/2 mice": {"test_system": "DBA/2 mice", "assay": "Intraocular pressure in ocular hypertensive glaucoma mouse model", "format": "in vivo", "settings": "for IOP reduced compared to control group: week 16, 20 μl both eyes twice daily", "experimental": "In this study, we evaluated the efficacy of KR-67607 in a mouse model of glaucoma using DBA/2 mice, which are congenitally predisposed to persistently elevated intraocular pressure (FIG. 9).\nIOP was measured after the acclimatization period and then every 4 weeks. IOP was measured in respiratory anesthetized mice according to the manufacturer's instructions and the mean value presented after six measurements was recorded."}, "[2]": {"test_system": "cynomolgus macaque model of glaucoma", "assay": "Retinal nerve fiber layer thickness by OCT in cynomolgus macaque model of glaucoma", "format": "in vivo", "experimental": "(§1) Three weeks before the first laser trabeculoplasty, IOP was measured via a tomometer (SPHPR-320-61), once per week for three weeks. The first laser trabeculoplasty was performed in one eye for each macaque. Two weeks later, laser trabeculoplasty was repeated in the same eye (Week 0).\n(§2) One week after the second laser trabeculoplasty (Week 1), IOP was measured and retinal nerve fiber layer (RNFL) thickness was measured via optical coherence tomography (OCT; RS3000 Advance, Nidek Co. Ltd., Gamagoori, Japan) (SPHPR- 320-58). The day after group assignment, the eyes were instilled with either vehicle, KR-67607 or brimonidine twice a day. On Day 1, the effect of treatment on IOP over time was measured before treatment and 1, 2, 4, and 8 hrs. after instillation. At the same time, blood samples were obtained. From the effects of dosing observed on Day 1, it was determined that 2 hrs. was a reasonable time time-to-test following instillation for subsequent observations.\n(§3) Intraocular pressures were obtained at Weeks 2, 3, 4, 5, 7 and 9. Optical coherence tomography and color fundus photography (CFP) were performed at Weeks 1, 3, 5, 7, and 9 (SPHPR-320-56)."}, "Solubility by pH": {"assay": "Solubility by pH", "format": "physicochemical", "settings": "stirred 12 hours", "experimental": "50 mL of pH 1 to 12 solution and tertiary purified water were taken precisely and placed in a 50 mL clear glass vial, and an excess amount (50 mg) of KR-67607 was weighed and added and stirred for 12 hours. Then, it was allowed to stand for 20 minutes to settle the undissolved excess of KR-67607, and the supernatant was taken and filtered through a 0.2 μm PVDF filter as a stock solution.\nThe standard was prepared by accurately weighing 15 mg of KR-67607, placing it in a 50 mL volumetric flask, using diluent (0.02 M potassium dihydrogen phosphate aqueous solution:acetonitrile=50:50 (v/v)) to completely dissolve/mark KR-67607, and filtering the liquid through a 0.45 μm PVDF filter as the standard.\nThe HPLC analysis conditions were as follows • Detector: ultraviolet-visible absorption spectrophotometer (measuring wavelength: 254 nm) • Column: 250×4.6 mm, 5μm, C18 packing column • Column temperature: 25±3° C. • Injection volume: 25 μL • Flow rate: 1 mL/min • Mobile Phase: Gradient"}, "[3]": {"assay": "Solubility by HP-β-CD concentration at pH adjustment", "format": "physicochemical", "experimental": "Various concentrations of HP-β-CD aqueous solutions were prepared by adding 1%, 2%, 3%, and 4% (w/v) of HP-β-CD to tertiary purified water (pH 5.5), pH 7.4 phosphate buffer, and 0.04 M NaOH aqueous solution (pH 12.5). An excess of KR-67607 was added to the above HP-β-CD solution and stirred for 24 hours, then the supernatant was collected and filtered through a 0.2 μm PVDF filter, and 1 mL was added to a 10 mL volumetric flask and labeled with methanol.\nFor the standard solution, 50 mg of KR-67607 was accurately weighed and placed in a 50 mL volumetric flask and completely dissolved/stained with methanol. 1, 2, 4, 6, 8, 10 mL of the standard solution was accurately taken and placed in a 20 mL volumetric flask, and the one labeled with methanol was used as the standard."}, "[4]": {"test_system": "cynomolgus macaque model of glaucoma", "assay": "Funduscopy in cynomolgus macaque model of glaucoma", "format": "in vivo", "experimental": "as §1, §2, §3"}, "[5]": {"test_system": "cynomolgus macaque model of glaucoma", "assay": "Intraocular pressure in cynomolgus macaque model of glaucoma (laser trabeculoplasty)", "format": "in vivo", "settings": "for maximum decrease of IOP, glaucomatous eye: 2 hours after instillation", "experimental": "as §1, §2, §3\nFollowing measurements at Week 9, G3 macaques was randomized into two groups based on IOP, and the effect of KR-67607 (1.5 mg/mL, 3.0 mg/mL) on IOP was evaluated."}},
  "data": [
    {"smiles": "CC1CN(CC(=O)NC2C3CC4CC2CC(C(N)=O)(C4)C3)S(=O)(=O)N(c2c(Cl)cc(C(F)(F)F)cc2Cl)C1", "note": "[KR-67607, (1s, 3R,4s,5S,7s)-4-(2-(6-(2,6-dichloro-4-(trifluoromethyl)phenyl)-4-methyl-1,1-dioxido-1,2,6-thiadiazinan-2-yl)acetamido)adamantane-1-carboxamide]", "values": [
      {"measurement": "the solubility of KR-67607", "setting": "[1]; HP-β-CD 0.5 % w/v in purified water", "result": 1.20, "unit": "mg/mL"},
      {"measurement": "the solubility of KR-67607", "setting": "[1]; HP-β-CD 1.0 % w/v in purified water", "result": 2.55, "unit": "mg/mL"},
      {"measurement": "the solubility of KR-67607", "setting": "[1]; HP-β-CD 2.0 % w/v in purified water", "result": 4.23, "unit": "mg/mL"},
      {"measurement": "the solubility of KR-67607", "setting": "[1]; HP-β-CD 3.0 % w/v in purified water", "result": 6.00, "unit": "mg/mL"},
      {"measurement": "the solubility of KR-67607", "setting": "[1]; HP-β-CD 4.0 % w/v in purified water", "result": 6.91, "unit": "mg/mL"},
      {"measurement": "the solubility of KR-67607", "setting": "[1]; HP-β-CD 5.0 % w/v in purified water", "result": 7.25, "unit": "mg/mL"},
      {"measurement": "week from which significant IOP reduction was seen", "setting": "DBA/2 mice; high dose KR-67607 (1.5 mg/ml)", "result": 4, "unit": "week"},
      {"measurement": "week from which IOP-lowering effects were observed", "setting": "DBA/2 mice; low-dose KR-67607 (0.75 mg/ml)", "result": 12, "unit": "week"},
      {"measurement": "IOP reduced compared to control group", "setting": "DBA/2 mice; high-dose KR-67607 (1.5 mg/ml)", "result": 26, "unit": "%"},
      {"measurement": "IOP reduced compared to control group", "setting": "DBA/2 mice; low concentration KR-67607 (0.75 mg/ml)", "result": 16, "unit": "%"},
      {"measurement": "RNFL thickness compared with vehicle treatment", "setting": "[2]; 5 weeks, unpaired t-test, p<0.05", "result": "greater"},
      {"measurement": "number of eyes with RNFL thickness greater than 50% compared to baseline", "setting": "[2]; Week 9, 6 eyes per group", "result": 3},
      {"measurement": "RNFL thinning in glaucomatous eyes", "setting": "[2]; repeated treatment, compared to vehicle-treated (G1)", "result": "significantly inhibited"},
      {"measurement": "inhibitory effect on RNFL thinning relative to brimonidine", "setting": "[2]; summary", "result": "greater than that of brimonidine"},
      {"measurement": "Solubility", "setting": "Solubility by pH; Purified water", "result": 0.01883, "unit": "mg/mL"},
      {"measurement": "Solubility", "setting": "Solubility by pH; pH 1 solution", "result": 0.04783, "unit": "mg/mL"},
      {"measurement": "Solubility", "setting": "Solubility by pH; pH 3 solution", "result": 0.04608, "unit": "mg/mL"},
      {"measurement": "Solubility", "setting": "Solubility by pH; pH 5 solution", "result": 0.04252, "unit": "mg/mL"},
      {"measurement": "Solubility", "setting": "Solubility by pH; pH 6 solution", "result": 0.04361, "unit": "mg/mL"},
      {"measurement": "Solubility", "setting": "Solubility by pH; pH 7 solution", "result": 0.04377, "unit": "mg/mL"},
      {"measurement": "Solubility", "setting": "Solubility by pH; pH 8 solution", "result": 0.04195, "unit": "mg/mL"},
      {"measurement": "Solubility", "setting": "Solubility by pH; pH 9 solution", "result": 0.04597, "unit": "mg/mL"},
      {"measurement": "Solubility", "setting": "Solubility by pH; pH 10 solution", "result": 0.04453, "unit": "mg/mL"},
      {"measurement": "Solubility", "setting": "Solubility by pH; pH 12 solution", "result": 0.05532, "unit": "mg/mL"},
      {"measurement": "Solubility by HP-β-CD concentration", "setting": "[3]; HP-β-CD 1.0 % w/v, 0.04M NaOH aqueous solution (pH 12.5)", "result": 3.16, "unit": "mg/mL"},
      {"measurement": "Solubility by HP-β-CD concentration", "setting": "[3]; HP-β-CD 1.0 % w/v, phosphate buffer (pH 7.4)", "result": 2.59, "unit": "mg/mL"},
      {"measurement": "Solubility by HP-β-CD concentration", "setting": "[3]; HP-β-CD 1.0 % w/v, purified water (pH 5.5)", "result": 2.55, "unit": "mg/mL"},
      {"measurement": "Solubility by HP-β-CD concentration", "setting": "[3]; HP-β-CD 2.0 % w/v, 0.04M NaOH aqueous solution (pH 12.5)", "result": 5.72, "unit": "mg/mL"},
      {"measurement": "Solubility by HP-β-CD concentration", "setting": "[3]; HP-β-CD 2.0 % w/v, phosphate buffer (pH 7.4)", "result": 4.29, "unit": "mg/mL"},
      {"measurement": "Solubility by HP-β-CD concentration", "setting": "[3]; HP-β-CD 2.0 % w/v, purified water (pH 5.5)", "result": 4.23, "unit": "mg/mL"},
      {"measurement": "Solubility by HP-β-CD concentration", "setting": "[3]; HP-β-CD 3.0 % w/v, 0.04M NaOH aqueous solution (pH 12.5)", "result": 7.9, "unit": "mg/mL"},
      {"measurement": "Solubility by HP-β-CD concentration", "setting": "[3]; HP-β-CD 3.0 % w/v, phosphate buffer (pH 7.4)", "result": 6, "unit": "mg/mL"},
      {"measurement": "Solubility by HP-β-CD concentration", "setting": "[3]; HP-β-CD 3.0 % w/v, purified water (pH 5.5)", "result": 6, "unit": "mg/mL"},
      {"measurement": "Solubility by HP-β-CD concentration", "setting": "[3]; HP-β-CD 4.0 % w/v, 0.04M NaOH aqueous solution (pH 12.5)", "result": 9.61, "unit": "mg/mL"},
      {"measurement": "Solubility by HP-β-CD concentration", "setting": "[3]; HP-β-CD 4.0 % w/v, phosphate buffer (pH 7.4)", "result": 6.79, "unit": "mg/mL"},
      {"measurement": "Solubility by HP-β-CD concentration", "setting": "[3]; HP-β-CD 4.0 % w/v, purified water (pH 5.5)", "result": 6.91, "unit": "mg/mL"},
      {"measurement": "animals with small optic discs compared to G1 in the glaucomatous eyes", "setting": "[4]; Week 5", "result": "four of six animals"},
      {"measurement": "animals with a small or lesser degree of cupping", "setting": "[4]; Week 9", "result": "three animals"},
      {"measurement": "maximum decrease of IOP, contralateral normal eye", "setting": "[5]; Day 1 dosing, 2 hours after dosing", "result": "did not decrease"},
      {"measurement": "maximum decrease of IOP, glaucomatous eye", "setting": "[5]; Day 1 dosing", "result": "9.2±4.1", "unit": "mmHg"},
      {"measurement": "effect on IOP (Extra dosing)", "setting": "[5]; KR-67607 1.5 mg/mL, after Week 9", "result": "did not affect"},
      {"measurement": "maximum decrease of IOP (Extra dosing)", "setting": "[5]; KR-67607 3.0 mg/mL, 1 hour after instillation", "result": "12.0±2.8", "unit": "mmHg"},
      {"measurement": "effect on trough IOP value", "setting": "[5]; glaucomatous eyes, repeated treatment twice a day, brimonidine tartrate 0.1%, KR-67607 1.5 mg/mL", "result": "did not significantly affect"},
      {"measurement": "maximum decrease of IOP, normal eye", "setting": "[5]; over weeks", "result": "did not decrease"},
      {"measurement": "maximum decrease of IOP, glaucomatous eye", "setting": "[5]; over weeks", "result": "10.4±2.2", "unit": "mmHg"},
      {"measurement": "IOP-decreasing effect in glaucomatous eyes relative to brimonidine", "setting": "[5]; summary", "result": "smaller than that of brimonidine"}
    ]}
  ]
}
